Data reported in patent US11873298B2, “Compounds and uses thereof” (JANSSEN PHARMACEUTICA NV, priority 2017, dated 2024).

Biological target: T1, SCD5 (Homo sapiens, UniProt Q86SK9)
T1 construct: host or cells: S. cerevisiae ole1Δ strain (W303 pdr1Δ pdr3Δ background), plasmid pRS316 with TDH3 promoter and CYC1 terminator
T1 sequence (Q86SK9 1-330): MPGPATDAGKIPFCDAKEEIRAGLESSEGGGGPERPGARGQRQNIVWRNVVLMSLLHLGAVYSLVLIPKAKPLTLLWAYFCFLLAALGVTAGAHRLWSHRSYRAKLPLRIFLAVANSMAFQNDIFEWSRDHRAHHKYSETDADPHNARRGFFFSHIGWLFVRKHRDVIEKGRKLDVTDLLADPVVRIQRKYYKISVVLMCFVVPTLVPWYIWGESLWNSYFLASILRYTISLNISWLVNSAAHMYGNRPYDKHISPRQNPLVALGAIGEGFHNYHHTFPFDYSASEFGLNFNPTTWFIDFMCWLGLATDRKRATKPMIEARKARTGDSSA
Test: Growth inhibition of humanized yeast strain expressing SCD5 as sole desaturase
Assay type: cell-based
Method: Strain oleΔ (yeast ole1 deletion mutant) was constructed by deleting OLE1 with NAT-MX6 in BY4741, amplifying the deletion cassette from the genomic DNA of the resulting strain with primers flanking the ORF by 1000 bp upstream and downstream, transforming the resulting deletion cassette into W303 pdr1Δ pdr3Δ, and plating transformants on YPD media containing G418 (200 μg/mL) and nourseothricin ([…]) with 0.01% TWEEN®-20 and 0.5 mM oleic and palmitoleic acids.
The coding sequence of yeast OLE1 was also cloned into this plasmid). These clones were then transformed into the ole1Δ strain and plated on CSM-Ura media (CSM lacking uracil) with 2% glucose (w/v) and independent colonies were isolated and amplified.
All compound profiling experiments were performed using the same basic protocol. Different genetic backgrounds (e.g., gene deletions) or conditions (e.g., addition of oleic and palmitoleic acid) were replaced as indicated below.
Yeast were cultured using standard techniques in complete synthetic media (CSM) and yeast nitrogen base supplemented with 2% (w/v) carbon source (glucose, raffinose, or galactose) to regulate the expression of the toxic disease protein. An initial starter culture was inoculated in 3 mL CSM-Glucose media and incubated overnight in a 30° C. shaker incubator (225 rpm). Saturated morning cultures were then diluted 1:20 in fresh CSM-Raffinose media and grown for 6 h to an OD600 (optical density) of ˜0.4-0.8 at 30° C. with shaking.
Compound administration was performed in two separate steps. First, 15 μL of CSM-Galactose (induces expression of toxic protein) was dispensed into clear 384 well assay plates using a MULTIDROP™ Combi reagent dispenser. […] The cultures described above were then diluted to a 2× concentration (0.03 and 0.08 for alpha-synuclein and ApoE, final ODsoo of 0.015 and 0.04) in CSM-Galactose. For wild-type and Ole1/SCD1/SCD5 plasmid-containing strains, the 2× cell density was 0.02. […] For 96-well assays (FIGS. 1A and 1B), compound dilutions in DMSO were generated in 96 well plates and 1 μL was manually pipetted into 96 well clear bottom assay plates.
For experiments using a plasmid-borne copy of Ole1, SCD1, or SCD5 (FIGS. 3B, 6, and 7), media lacking uracil (SX-Ura, where X is glucose, raffinose, or galactose), was used for all steps of the compound profiling protocol to ensure its maintenance throughout the assay.
After yeast delivery, assay plates were incubated under humidified conditions at 30° C. for 24 to 40 h. ApoE4 rescue experiments were stopped at 24 h, aSyn experiments at 40 h, Ole1 at 24 h, and SCD1/SCD5 at 40 h. The growth of yeast was monitored by reading the ODsoo of each well using a microplate reader (Perkin Elmer EnVision™).

[1] = yeast strain expressing human SCD5 as sole desaturase, Table 8
[2] = humanized yeast strain expressing SCD5

Row | SMILES | IC50 [1] | IC50 [2]
1 | CC(C)C(=O)N1CCC(c2noc(-c3cc(F)c(F)c(N4CCOCC4)c3)n2)CC1 [Compound 1304] | 11900 nM | 
2 | O=C(NCC(=O)N1CCC(c2nc(-c3ccc4cnn(C5COC5)c4c3)no2)CC1)c1ccccc1 [Compound 598] |  | > 45000 nM
3 | CC(C)(C)OC(=O)N1CCC(c2noc(-c3cc(C4CCOC4)ncc3F)n2)CC1 (centres unmarked) [Compound 1267] | 2650 nM | 
4 | CC(C)n1ncc2ccc(N3CC4(CCN(C(=O)OC5CC5)CC4)C3)cc21 [Compound 594] |  | 11800 nM
5 | CCS(=O)(=O)N1CCC(c2noc(-c3ccc4cnn(C5COC5)c4c3)n2)CC1 [Compound 1216] | 330 nM | 
6 | CC(C)n1ncc2ccc(-c3nc(C4CCN(C(=O)c5ccccn5)CC4)no3)cc21 [Compound 499] |  | 1100 nM
7 | Cc1nn(C)c2cc(-c3noc(C4CCN(C(=O)CC5CN(C(=O)OC(C)(C)C)C5)CC4)n3)ccc12 [Compound 502] |  | 38900 nM
8 | CC(C)C(=O)N1CCC(c2noc(-c3cncc(C4CCOC4)c3)n2)CC1 (centres unmarked) [Compound 1199] | 3780 nM | 
9 | CC1(OC(=O)N2CCC(c3noc(-c4cc(C5CCOC5)c(F)cn4)n3)CC2)CC1 (centres unmarked) [Compound 1298] | 30 nM | 
10 | CC(C)(C)OC(=O)N1CCC(c2noc(-c3ccnc(-c4cocn4)c3)n2)CC1 [Compound 1293] | 490 nM | 
11 | CC(C)(C)OC(=O)N1CCC(c2noc(-c3cc(N4CCOCC4)c(F)cn3)n2)CC1 [Compound 1273] | 20 nM | 
12 | CC(C)(C)OC(=O)N1CCC(c2noc(-c3ccc(C4CCOC4)nc3)n2)CC1 (centres unmarked) [Compound 1262] | 14100 nM | 
13 | O=C(OC1CCC1)N1CCC(c2noc(-c3ccn(C4COC4)c(=O)c3)n2)CC1 [Compound 1292] | 15100 nM | 
14 | CC(C)n1ncc2ccc(-c3noc(C4=C(F)CN(C(=O)OC(C)(C)C)CC4)n3)cc21 [Compound 510] |  | 4160 nM
15 | CC(C)n1ncc2ccc(-c3noc(C4CCN(C(=O)CNC(=O)c5cccc(C#N)c5)CC4)n3)cc21 [Compound 556] |  | > 45000 nM
16 | CC(C)CC(=O)N1CCC(c2noc(-c3cnc4cnn(C5COC5)c4c3)n2)CC1 [Compound 1214] | 390 nM | 
17 | CC1(OC(=O)N2CCC(c3nc(-c4ccc5cnn(C6COC6)c5c4)no3)CC2)CC1 [Compound 576] |  | 28 nM
18 | O=C(C1CCC1)N1CCC(c2noc(-c3cc(C4CCOC4)ccn3)n2)CC1 (centres unmarked) [Compound 1285] | 900 nM | 
19 | CC(C)(C)OC(=O)N1CCC(c2cc(-c3ccnc(C4CCOC4)n3)no2)CC1 (centres unmarked) [Compound 1202] | 7130 nM | 
20 | CCC(=O)N1CCC(c2noc(-c3cc(N4CCOCC4)ccn3)n2)CC1 [Compound 1300] | 60 nM | 
21 | CC1(OC(=O)N2CCC(c3noc(-c4ccnc(-c5cocn5)c4)n3)CC2)CC1 [Compound 1310] | 470 nM | 
22 | O=C(C1CC1)N1CCC(c2noc(-c3cc(C4CCOC4)ccn3)n2)CC1 (centres unmarked) [Compound 1278] | 2730 nM | 
23 | COC(=O)N[C@H]1CC[C@@H](c2nc(-c3ccc4c(C)nn(C)c4c3)no2)CC1 [Compound 550] |  | > 45000 nM
24 | CC(C)n1ncc2ccc(-c3noc(C4CCN(C(=O)c5cccs5)CC4)n3)cc21 [Compound 574] |  | 2280 nM
25 | CC1(C(=O)N2CCC(c3cc(-c4cc5c(cn4)cnn5C4COC4)on3)CC2)CC1 [Compound 1237] | 70 nM | 
26 | CCC(=O)N1CCC(c2noc(-c3ccnc(N4CCC(F)(F)C4)c3)n2)CC1 [Compound 1248] | 6930 nM | 
